Measured values published in patent US20160361302A1, “SNS-595 AND METHODS OF USING THE SAME” (Sunesis Pharmaceuticals, Inc., priority 2004, published 2016).
Where two headings read alike, the source gives them in different places.

Assay: Pharmacokinetics of SNS-595 in cancer patients
Format: in vivo, human
Conditions: for AUC(0-inf): read-out: AUCINF_obs
Experimental: SNS-595 was administered to enrolled patients for up to six cycles. A cycle is defined as a three-week period, with SNS-595 administered on the first day of each cycle (day 0), followed by at least 21 days of observation. SNS-595 was administered to cohorts of at least 3 patients and dose escalation occurred by sequential cohort.

[1] = dose 6 mg/m2, cancer patients, plasma
[2] = dose 12 mg/m2, cancer patients, plasma
[3] = dose 24 mg/m2, cancer patients, plasma
[4] = dose 48 mg/m2, cancer patients, plasma
[5] = human, dose 12 mg/m2, cancer patients, plasma

Vs_obs (dose 2 mg/m2, cancer patients, plasma): 1.38 L/kg
AUClast [1]: 2408.08 ng·h/mL
CI_obs [1]: 0.71 mL/min/kg
Cmax [1]: 347.06 ng/mL
Vs_obs [1]: 1.28 L/kg
CI_obs [2]: 0.78 mL/min/kg
Vs_obs [2]: 1.17 L/kg
AUClast [3]: 11132.02 ng·h/mL
CI_obs [3]: 0.83 mL/min/kg
Cmax [3]: 2702.33 ng/mL
Vs_obs [3]: 1.18 L/kg
Cmax [4]: 2342.00 ng/mL
Vs_obs [4]: 1.37 L/kg
AUC(0-inf) (human, dose 6 mg/m2, cancer patients, plasma): 2800 ng·h/mL
AUC(0-t) [5]: ~6280 ng·h/mL
AUC(0-inf) [5]: 5230 ng·h/mL
SMILES: CN[C@H]1CN(c2ccc3c(=O)c(C(=O)O)cn(-c4nccs4)c3n2)C[C@@H]1OC [SNS-595, (+)-1,4-dihydro-7-[(3S,4S)-3-methoxy-4-(methylamino)-1-pyrrolidinyl]-4-oxo-1-(2-thiazoyl)-1,8-naphthyridine-3-carboxylic acid]
Consistency of pharmacokinetic properties among patients (patients in the same cohort): remarkably consistent among patients in the same cohort
